Test results: US20250296971A1, “GASTRIC INHIBITORY PEPTIDE RECEPTOR LIGANDS” (priority 2021, published 2025)
*1 amine or outer side, *2 acyl side, *3 side chain or, on linkers, in order; H or OH if unused. Where a SMILES comes first, the peptide text is derived from it. Bridges are numbered along the chain shown (N, C = ends). [ ]: non-standard residue; d: D form. The star is where a group is joined. X3 = O=C(O)CN1CCN(CC(=O)O)CCN(CC(=O)NCCCOCCOCCOCCCN*)CCN(CC(=O)O)CC1; Maleimide(3,4-diyl) = O=C1NC(=O)C([*:2])=C1[*:1]; Trp(5-Cl) = N[C@@H](Cc1c[nH]c2ccc(Cl)cc12)C(=O)O; Phe(3,4-Cl2) = N[C@@H](Cc1ccc(Cl)c(Cl)c1)C(=O)O; Pyridine(2,6-diCH2) = c1cc(C[*:1])nc(C[*:2])c1; Phe(2,4-Cl2) = N[C@@H](Cc1ccc(Cl)cc1Cl)C(=O)O; Oic = O=C(O)[C@@H]1C[C@@H]2CCCC[C@@H]2N1; X23 = O=C(c1cccc(CSCCN[*:1])c1)[*:2]; Hyp = O=C(O)[C@@H]1C[C@@H](O)CN1; Suc = O=C(CCC(=O)[*:2])[*:1]; hCys = N[C@@H](CCS)C(=O)O; Thp = NC1(C(=O)O)CCOCC1; Dap = NC[C@H](N)C(=O)O; Aib = CC(C)(N)C(=O)O; Sar = CNCC(=O)O

Molecular target: T1, GIPR (CHO-K1-hGIPR cells) (Homo sapiens, UniProt P48546)
T1 construct: host or cells: CHO-K1
T1 sequence (P48546 22-466): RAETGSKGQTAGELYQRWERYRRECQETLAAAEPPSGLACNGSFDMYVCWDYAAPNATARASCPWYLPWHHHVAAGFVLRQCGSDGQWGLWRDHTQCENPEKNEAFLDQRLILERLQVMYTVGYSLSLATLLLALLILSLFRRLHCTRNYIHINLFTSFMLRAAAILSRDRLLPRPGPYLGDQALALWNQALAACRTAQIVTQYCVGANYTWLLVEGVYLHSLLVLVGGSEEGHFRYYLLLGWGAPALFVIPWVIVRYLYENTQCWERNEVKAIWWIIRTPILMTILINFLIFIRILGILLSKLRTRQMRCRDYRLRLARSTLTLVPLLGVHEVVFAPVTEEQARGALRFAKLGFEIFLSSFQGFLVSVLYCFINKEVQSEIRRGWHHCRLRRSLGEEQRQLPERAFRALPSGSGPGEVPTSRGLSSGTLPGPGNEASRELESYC
Assay: FACS binding assay
Conditions: competition with 20 nM GIP-057, 4° C. for 1 hour, read-out: pIC50 Category (converted)
In short: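 CHO-K1 cells expressing human GIPR, washed in PBS/1% FCS, then stained with 1 μg/mL APC-streptavidin for 30 min on ice.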

IC50 [nM]	SMILES
> 1000	CC[C@H](C)[C@@H]1NC(=O)[C@H](CC(C)C)NC(=O)C2(CCOCC2)NC(=O)[C@@H](NC(=O)[C@@H](CC(C)C)NC(=O)[C@H](CCC(=O)O)NC(=O)[C@@H]2C[C@@H](O)CN2C(=O)[C@H](Cc2ccc(Cl)cc2Cl)NC(=O)[C@H](Cc2c[nH]c3ccccc23)NC(=O)[C@H](CC(=O)O)NC(C)=O)CSCc2cccc(n2)CSC[C@@H](C(N)=O)NC1=O [GIP-351, Ac-Asp-Trp-Egm-Hyp-Glu-leu-[Cys(2Lut)-Thp-Leu-Ile-Cys]-NH2] (Ac-DW[Phe(2,4-Cl2)][Hyp]E[dL]C[Thp]LIC-NH2; linker 7-11 via Pyridine(2,6-diCH2))
> 1000	CC[C@H](C)[C@@H]1NC(=O)[C@H](CC(C)C)NC(=O)C2(CCOCC2)NC(=O)[C@@H](NC(=O)[C@@H](CC(C)C)NC(=O)[C@H](CCC(=O)O)NC(=O)[C@@H]2C[C@@H](O)CN2C(=O)[C@H](Cc2ccccc2)NC(=O)[C@H](Cc2c[nH]c3ccccc23)NC(=O)[C@H](CC(=O)O)NC(C)=O)CSCc2cccc(n2)CSC[C@@H](C(N)=O)NC1=O [GIP-352, Ac-Asp-Trp-Phe-Hyp-Glu-leu-[Cys(2Lut)-Thp-Leu-Ile-Cys]-NH2] (Ac-DWF[Hyp]E[dL]C[Thp]LIC-NH2; linker 7-11 via Pyridine(2,6-diCH2))
> 1000	CC(=O)N[C@@H](CC(=O)O)C(=O)N[C@@H](Cc1c[nH]c2ccccc12)C(=O)N[C@@H](Cc1c[nH]c2ccc(Cl)cc12)C(=O)N1C[C@H](O)C[C@H]1C(=O)N[C@@H](CCC(=O)O)C(=O)N[C@H](CC(C)C)C(=O)N[C@H]1CSCc2cccc(n2)CSC[C@@H](C(N)=O)NC(=O)[C@H](CCCNC(=N)N)NC(=O)[C@H](CC(C)C)NC(=O)C2(CCOCC2)NC1=O [GIP-353, Ac-Asp-Trp-5Clw-Hyp-Glu-leu-[Cys(2Lut)-Thp-Leu-Arg-Cys]-NH2] (Ac-DW[Trp(5-Cl)][Hyp]E[dL]C[Thp]LRC-NH2; linker 7-11 via Pyridine(2,6-diCH2))
> 1000	CC(=O)N[C@@H](CC(=O)O)C(=O)N[C@@H](Cc1c[nH]c2ccccc12)C(=O)N[C@@H](Cc1c[nH]c2ccc(Cl)cc12)C(=O)N1C[C@H](O)C[C@H]1C(=O)N[C@@H](CCC(=O)O)C(=O)N[C@H](CC(C)C)C(=O)N[C@H]1CSCc2cccc(n2)CSC[C@@H](C(N)=O)NC(=O)[C@H](CCC(=O)O)NC(=O)[C@H](CC(C)C)NC(=O)C2(CCOCC2)NC1=O [GIP-354, Ac-Asp-Trp-5Clw-Hyp-Glu-leu-[Cys(2Lut)-Thp-Leu-Glu-Cys]-NH2] (Ac-DW[Trp(5-Cl)][Hyp]E[dL]C[Thp]LEC-NH2; linker 7-11 via Pyridine(2,6-diCH2))
> 1000	CC(=O)N[C@@H](CC(=O)O)C(=O)N[C@@H](Cc1c[nH]c2ccccc12)C(=O)N[C@@H](Cc1c[nH]c2ccc(Cl)cc12)C(=O)N1C[C@H](O)C[C@H]1C(=O)N[C@@H](CCC(=O)O)C(=O)N[C@H](CC(C)C)C(=O)N[C@H]1CSCc2cccc(n2)CSC[C@@H](C(N)=O)NC(=O)[C@H](Cc2c[nH]c3ccccc23)NC(=O)[C@H](CC(C)C)NC(=O)C2(CCOCC2)NC1=O [GIP-355, Ac-Asp-Trp-5Clw-Hyp-Glu-leu-[Cys(2Lut)-Thp-Leu-Trp-Cys]-NH2] (Ac-DW[Trp(5-Cl)][Hyp]E[dL]C[Thp]LWC-NH2; linker 7-11 via Pyridine(2,6-diCH2))
> 1000	CC[C@H](C)[C@@H]1NC(=O)[C@H](CC(C)C)NC(=O)C2(CCOCC2)NC(=O)[C@@H](NC(=O)[C@@H](CC(C)C)NC(=O)[C@H](CCC(=O)O)NC(=O)[C@@H]2C[C@@H]3CCCC[C@@H]3N2C(=O)[C@H](Cc2ccc(Cl)c(Cl)c2)NC(=O)[C@H](Cc2ccc(Cl)c(Cl)c2)NC(=O)[C@H](CC(=O)O)NC(C)=O)CSCc2cccc(n2)CSC[C@@H](C(N)=O)NC1=O [GIP-356, Ac-Asp-Eaa-Eaa-Oic-Glu-leu-[Cys(2Lut)-Thp-Leu-Ile-Cys]-NH2] (Ac-D[Phe(3,4-Cl2)][Phe(3,4-Cl2)][Oic]E[dL]C[Thp]LIC-NH2; linker 7-11 via Pyridine(2,6-diCH2))
> 1000	CC[C@H](C)[C@@H]1NC(=O)[C@H](CC(C)C)NC(=O)C2(CCOCC2)NC(=O)[C@@H](NC(=O)[C@@H](CC(C)C)NC(=O)[C@H](CCC(=O)O)NC(=O)CN(C)C(=O)[C@H](Cc2ccc(Cl)c(Cl)c2)NC(=O)[C@H](Cc2ccc(Cl)c(Cl)c2)NC(=O)[C@H](CC(=O)O)NC(C)=O)CSCc2cccc(n2)CSC[C@@H](C(N)=O)NC1=O [GIP-357, Ac-Asp-Eaa-Eaa-Nmg-Glu-leu-[Cys(2Lut)-Thp-Leu-Ile-Cys]-NH2] (Ac-D[Phe(3,4-Cl2)][Phe(3,4-Cl2)][Sar]E[dL]C[Thp]LIC-NH2; linker 7-11 via Pyridine(2,6-diCH2))
< 10	CC[C@H](C)[C@@H]1NC(=O)[C@H](CC(C)C)NC(=O)C(C)(C)NC(=O)[C@@H](NC(=O)[C@@H](CC(C)C)NC(=O)[C@H](CCC(=O)O)NC(=O)[C@@H]2CCCN2C(=O)[C@H](Cc2c[nH]c3ccc(Cl)cc23)NC(=O)[C@H](Cc2c[nH]c3ccccc23)NC(=O)[C@H](CC(=O)O)NC(=O)CCC(=O)NCCCOCCOCCOCCCNC(=O)CN2CCN(CC(=O)O)CCN(CC(=O)O)CCN(CC(=O)O)CC2)CNC(=O)c2cccc(c2)CSCCNC1=O [GIP-358, DOTA-Ttds-Asp-Trp-5Clw-Pro-Glu-leu-[Dap(3MeBz)-Aib-Leu-Ile-AET]] ({X3-Suc}-DW[Trp(5-Cl)]PE[dL][Dap][Aib]LI[X23]; lactam 7-C)
< 10	CC[C@H](C)[C@@H]1NC(=O)[C@H](CC(C)C)NC(=O)C2(CCOCC2)NC(=O)[C@@H](NC(=O)[C@@H](CC(C)C)NC(=O)[C@H](CCC(=O)O)NC(=O)[C@@H]2C[C@@H](O)CN2C(=O)[C@H](Cc2c[nH]c3ccc(Cl)cc23)NC(=O)[C@H](Cc2c[nH]c3ccccc23)NC(=O)[C@H](CC(=O)O)NC(C)=O)CSC2=C(SC[C@@H](C(N)=O)NC1=O)C(=O)NC2=O [GIP-360, Ac-Asp-Trp-5Clw-Hyp-Glu-leu-[Cys(mli)-Thp-Leu-Ile-Cys]-NH2] (Ac-DW[Trp(5-Cl)][Hyp]E[dL]C[Thp]LIC-NH2; linker 7-11 via Maleimide(3,4-diyl))
< 10	CC[C@H](C)[C@@H]1NC(=O)[C@H](CC(C)C)NC(=O)C2(CCOCC2)NC(=O)[C@@H](NC(=O)[C@@H](CC(C)C)NC(=O)[C@H](CCC(=O)O)NC(=O)[C@@H]2C[C@@H](O)CN2C(=O)[C@H](Cc2c[nH]c3ccc(Cl)cc23)NC(=O)[C@H](Cc2c[nH]c3ccccc23)NC(=O)[C@H](CC(=O)O)NC(C)=O)CSC2=C(SCC[C@@H](C(N)=O)NC1=O)C(=O)NC2=O [GIP-361, Ac-Asp-Trp-5Clw-Hyp-Glu-leu-[Cys(mli)-Thp-Leu-Ile-Hcy]-NH2] (Ac-DW[Trp(5-Cl)][Hyp]E[dL]C[Thp]LI[hCys]-NH2; linker 7-11 via Maleimide(3,4-diyl))
10 to 79.4	CC[C@H](C)[C@@H]1NC(=O)[C@H](CC(C)C)NC(=O)C2(CCOCC2)NC(=O)[C@@H](NC(=O)[C@@H](CC(C)C)NC(=O)[C@H](CCC(=O)O)NC(=O)[C@@H]2C[C@@H](O)CN2C(=O)[C@H](Cc2c[nH]c3ccc(Cl)cc23)NC(=O)[C@H](Cc2c[nH]c3ccccc23)NC(=O)[C@H](CC(=O)O)NC(C)=O)CCSC2=C(SC[C@@H](C(N)=O)NC1=O)C(=O)NC2=O [GIP-362, Ac-Asp-Trp-5Clw-Hyp-Glu-leu-[Hcy(mli)-Thp-Leu-Ile-Cys]-NH2] (Ac-DW[Trp(5-Cl)][Hyp]E[dL][hCys][Thp]LIC-NH2; linker 7-11 via Maleimide(3,4-diyl))
